Target: H^+ /K^+ -ATPase (Homo sapiens, UniProt P20648)
Assay: Inhibition of H^+ /K^+ -ATPase (comparison experiment / enzyme test)
Format: biochemical

Chain of H^+ /K^+ -ATPase (P20648 whole entry): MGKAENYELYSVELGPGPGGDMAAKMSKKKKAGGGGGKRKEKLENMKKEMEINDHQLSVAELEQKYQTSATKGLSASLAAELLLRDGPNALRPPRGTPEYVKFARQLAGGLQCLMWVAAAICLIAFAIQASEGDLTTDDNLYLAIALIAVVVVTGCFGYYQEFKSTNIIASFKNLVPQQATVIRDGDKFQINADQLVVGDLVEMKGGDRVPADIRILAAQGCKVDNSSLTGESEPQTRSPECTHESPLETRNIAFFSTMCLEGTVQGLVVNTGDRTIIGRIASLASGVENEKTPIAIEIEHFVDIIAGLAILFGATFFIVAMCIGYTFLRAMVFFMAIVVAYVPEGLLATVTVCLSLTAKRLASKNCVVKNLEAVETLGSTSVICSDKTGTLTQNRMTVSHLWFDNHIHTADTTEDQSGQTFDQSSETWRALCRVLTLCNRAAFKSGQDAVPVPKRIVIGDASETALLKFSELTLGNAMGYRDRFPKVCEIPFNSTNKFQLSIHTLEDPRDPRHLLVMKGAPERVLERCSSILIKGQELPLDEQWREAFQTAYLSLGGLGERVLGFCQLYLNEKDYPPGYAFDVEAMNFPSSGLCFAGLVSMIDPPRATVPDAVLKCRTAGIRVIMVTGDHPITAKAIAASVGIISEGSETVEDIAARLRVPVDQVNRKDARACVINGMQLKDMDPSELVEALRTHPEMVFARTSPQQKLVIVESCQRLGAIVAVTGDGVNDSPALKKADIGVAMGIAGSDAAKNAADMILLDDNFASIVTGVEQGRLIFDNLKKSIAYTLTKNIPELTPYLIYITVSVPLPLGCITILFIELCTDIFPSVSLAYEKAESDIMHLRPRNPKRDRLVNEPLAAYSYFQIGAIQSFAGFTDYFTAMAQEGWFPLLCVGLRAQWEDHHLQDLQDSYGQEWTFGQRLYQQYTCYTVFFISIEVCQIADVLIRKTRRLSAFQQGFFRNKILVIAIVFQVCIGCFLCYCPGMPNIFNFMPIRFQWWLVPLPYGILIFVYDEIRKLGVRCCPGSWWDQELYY
Chain of H^+ /K^+ -ATPase (P51164 whole entry partner): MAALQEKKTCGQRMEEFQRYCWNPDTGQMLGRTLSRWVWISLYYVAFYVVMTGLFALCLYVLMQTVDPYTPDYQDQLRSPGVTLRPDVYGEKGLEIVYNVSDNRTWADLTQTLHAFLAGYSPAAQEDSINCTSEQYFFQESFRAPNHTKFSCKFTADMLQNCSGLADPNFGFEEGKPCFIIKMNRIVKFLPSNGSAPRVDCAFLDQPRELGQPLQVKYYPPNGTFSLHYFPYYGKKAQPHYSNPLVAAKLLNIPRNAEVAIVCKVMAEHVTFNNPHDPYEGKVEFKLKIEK

- IC50: 5.3 µM
SMILES: COc1c(C)cnc(C[S+]([O-])c2nc3cc(C4=NCCO4)ccc3[nH]2)c1C (centres unmarked) [Substance A, 5-(4,5-dihydro-2-oxazolyl)-2-((3,5-dimethyl-4-methoxy-2-pyridyl)methylsulfinyl)-1H-benzimidazole]
- inhibition of H^+ /K^+ -ATPase relative to omeprazole (comparison with omeprazole): approximately five times greater than does omeprazole

From patent publication US4818760A, “Derivatives of pyridylsulfinyl(benz-or thieno-)imidazoles and their use as gastric secretion inhibiting substances” (Chemie Linz Aktiengesellschaft, priority 1986, dated 1989)
